Test results taken from US7271195B2, “Carbonyl compounds as inhibitors of histone deacetylase for the treatment of disease” (Kalypsys, Inc., priority 2003, dated 2007).
Read-outs that look alike come from different tables or passages of the source.

Legend:
HDAC [1] = test system: T1, HDAC; assay: In vitro HDAC-inhibition assay (Fluor de Lys fluorescent substrate); format: biochemical; conditions: for IC50: in vitro HDAC enzyme source; for % Max Inhibition (in vitro): maximum inhibition
T1 construct: in vitro IC50; other: in vitro HDAC enzyme source
Description: In vitro HDAC-inhibition Assay:
This assay measures a compound's ability to inhibit acetyl-lysine deacetylation in vitro and was used as both a primary screening method as well as for IC50 determinations of confirmed inhibitors. The assay is performed in vitro using an HDAC enzyme source (e.g. partially purified nuclear extract or immunopurified HDAC complexes) and a proprietary fluorescent substrate/developer system (HDAC Quantizyme Fluor de Lys Fluorescent Activity Assay, BIOMOL). The assay is run in 1,536-well Greiner white-bottom plates using the following volumes and order of addition:
Step 1: Enzyme (2.5 ul) source added to plate (from refrigerated container) • Step 2: Compounds (50 nl) added with pin transfer device • Step 3: Fluor de Lys (2.5 ul) substrate added, incubate at RT, 30 minutes • Step 4: Developer (5 ul) solution is added (containing TSA), to stop reaction • Step 5: Plate Reader—data collection
The deacetylated fluorophore is excited with 360 nm light and the emitted light (460 nm) is detected on an automated fluorometric plate reader (Aquest, Molecular Devices).

[2] = test system: HDAC in cells (cellular histone acetylation levels); assay: Cellular histone hyperacetylation assay (cytoblot), cellular HDAC inhibition; format: cell-based; conditions: for Cellular IC50 / IC50: "active" = inhibitory activity but cellular IC50 could not be determined; for Emax / % Max. Inhibition (cellular): maximum inhibition; for Emax: read-out: % Max. Inhibition (cellular)
Description: Cellular Histone Hyperacetylation Assays:
These two secondary assays evaluates a compound's ability to inhibit HDAC in cells by measuring cellular histone acetylation levels. The cytoblot facilitates quantitative EC50 information for cellular HDAC inhibition. Transformed cell lines (e.g. HeLa, A549, MCF-7) are cultured under standard media and culture conditions prior to plating.
Cells (approx. 2,500/well) are allowed to adhere 10-24 hours to wells of a 384-well Greiner PS assay plate in media containing 1-5% serum. Cells are treated with appropriate compound and specific concentrations for 0 to 24 hours. Cells are washed once with PBS (60 ul) and then fixed (95% ethanol, 5% acetic acid or 2% PFA) for 1 minute at RT (30 ul). Cells are blocked with 1% BSA for 1 hour and washed and stained with antibody (e.g. anti-Acetylated Histone H3, Upstate Biotechnology), followed by washing and incubation with an appropriate secondary antibody conjugated to HRP or fluorophore. For luminescence assays, signal is generated using Luminol substrate (Santa Cruz Biotechnology) and detected using an Aquest plate reader (Molecular Devices).

HDAC [3] = conditions: published value for positive control; read-out: published in vitro IC50; cited from earlier work

Row | SMILES | IC50 (HDAC [1]) | Cellular IC50 [2] | IC50 [2] | % Max Inhibition (in vitro) (HDAC [1]) | Emax [2] | % Max. Inhibition (cellular) [2] | IC50 (HDAC [3])
1 | N#CSCC(=O)c1ccccc1 [Compound 1, 1-Phenyl-2-thiocyanato-ethanone] | 1000 to 10000 nM | active |  | >75% |  |  | 
2 | COc1ccc(C(=O)CSC#N)cc1 [Compound 10] | 1000 to 10000 nM | active |  | >75% |  |  | 
3 | N#CSCC(=O)c1ccc(N2CCCC2)cc1 [Compound 11] | 1000 to 10000 nM | active |  | >50% |  |  | 
4 | COc1ccc(C(=O)CSC#N)cc1OC [Compound 12] | 1000 to 10000 nM |  |  | >75% |  |  | 
5 | CCN(CC)c1ccc(C(=O)CSC#N)cc1 [Compound 13] | 1000 to 10000 nM | active |  | >75% |  |  | 
6 | O=C(CSC1=NCCS1)c1ccccc1 [Compound 14, 2-(4,5-Dihydro-thiazol-2-ylsulfanyl)-1-phenyl-ethanone] | > 10000 nM |  | > 10000 nM | >75% | < 50% |  | 
7 | O=C(CSC1=NCCS1)c1ccc(Cl)c(Cl)c1 [Compound 15] | 1000 to 10000 nM |  | 1000 to 10000 nM | >75% | > 75% |  | 
8 | O=C(CSC1=NCCS1)c1cccc(Br)c1 [Compound 16] | 1000 to 10000 nM | active |  | >75% |  |  | 
9 | O=C(CSC1=NCCS1)c1ccc(Cl)cc1 [Compound 17] | > 10000 nM | active |  | >75% |  |  | 
10 | O=C(CSC1=NCCS1)c1ccc(Br)cc1 [Compound 18] | > 10000 nM | active |  | >75% |  |  | 
11 | O=C(CSC1=NCCS1)c1ccc2c(c1)OCCO2 [Compound 19] | > 10000 nM |  | 1000 to 10000 nM | >75% | > 50% |  | 
12 | COc1cccc(C(=O)CSC2=NCCS2)c1 [Compound 20] | > 10000 nM | active |  | >75% |  |  | 
13 | CC(=O)Nc1ccc(C(=O)CSC2=NCCS2)cc1 [Compound 21] | > 10000 nM |  | 1000 to 10000 nM | >75% | > 75% |  | 
14 | CCN(CC)c1ccc(C(=O)CSC2=NCCS2)cc1 [Compound 22] | > 10000 nM |  | 1000 to 10000 nM | <50% | < 50% |  | 
15 | COc1ccc(C(=O)CSC2=NCCS2)cc1 [Compound 23] | > 10000 nM | active |  | >50% |  |  | 
16 | O=C(CSC1=NCCS1)c1ccc(N2CCCC2)cc1 [Compound 24] | > 10000 nM | active |  | >50% |  |  | 
17 | COc1ccc(C(=O)CSC2=NCCS2)cc1OC [Compound 25] | > 10000 nM | active |  | <50% |  |  | 
18 | COc1ccc(S(=O)(=O)Nc2ccc(C(=O)CSC3=NCCS3)cc2)cc1OC [Compound 26, N-{4-[2-(4,5-Dihydro-thiazol-2-ylsulfanyl)-acetyl]-phenyl}-3,4-dimethoxy-benzenesulfonamide] | 1000 to 10000 nM |  | < 1000 nM | >75% | > 75% |  | 
19 | O=C(CSC1=NCCS1)c1ccc(NS(=O)(=O)c2ccc(OC(F)(F)F)cc2)cc1 [Compound 27, N-{4-[2-(4,5-Dihydro-thiazol-2-ylsulfanyl)-acetyl]-phenyl}-4-trifluoromethoxy-benzenesulfonamide] | 1000 to 10000 nM |  | 1000 to 10000 nM | >75% | > 75% |  | 
20 | CC(=O)Nc1ccc(S(=O)(=O)Nc2ccc(C(=O)CSC3=NCCS3)cc2)cc1 [Compound 29, N-(4-{4-[2(4,5-Dihydro-thiazol-2-ylsulfanyl)-acetyl]-phenylsulfamoyl}-phenyl)-acetamide] | 1000 to 10000 nM |  | 1000 to 10000 nM | >75% | > 75% |  | 
21 | COc1ccc(S(=O)(=O)Nc2cccc(C(=O)CSC3=NCCS3)c2)cc1OC [Compound 30] | 1000 to 10000 nM |  | 1000 to 10000 nM | >75% | > 75% |  | 
22 | O=C(CSC1=NCCS1)c1cccc(NS(=O)(=O)c2ccc(OC(F)(F)F)cc2)c1 [Compound 31] | 1000 to 10000 nM |  | 1000 to 10000 nM | >75% | > 75% |  | 
23 | COc1cccc(C(=O)CS)c1 [Compound 42] | 1000 to 10000 nM |  | > 10000 nM | >75% | > 75% |  | 
24 | C[C@@H]1NC(=O)[C@H]2CCCN2C(=O)[C@H](CCCCCC(=O)[C@@H]2CO2)NC(=O)[C@@H](C)NC1=O [HC-toxin, reference compound] | < 1000 nM |  |  | >75% |  |  | 
25 | Nc1ccccc1NC(=O)c1ccc(CNC(=O)OCc2cccnc2)cc1 [MS-275, reference compound] | > 10000 nM |  | 1000 to 10000 nM | >50% |  | >75% | 

Continued, in another order:

Row | IC50 (HDAC [1]) | Cellular IC50 [2] | IC50 [2] | SMILES | % Max Inhibition (in vitro) (HDAC [1]) | Emax [2] | % Max. Inhibition (cellular) [2] | IC50 (HDAC [3])
26 | < 1000 nM | active |  | N#CSCC(=O)c1ccc(F)c(F)c1 [Compound 2] | >75% |  |  | 
27 | < 1000 nM |  | 1000 to 10000 nM | N#CSCC(=O)c1ccc(Cl)c(Cl)c1 [Compound 3] | >75% | 104% |  | 
28 | < 1000 nM |  | 1000 to 10000 nM | Cc1cc(C(=O)CSC#N)ccc1Cl [Compound 4] | >75% | > 75% |  | 
29 | < 1000 nM | active |  | N#CSCC(=O)c1ccc2c(c1)OCCO2 [Compound 5] | >75% |  |  | 
30 | < 1000 nM |  | 1000 to 10000 nM | N#CSCC(=O)c1ccc(Cl)cc1 [Compound 6] | >75% | > 75% |  | 
31 | < 1000 nM |  | 1000 to 10000 nM | CC(=O)Nc1ccc(C(=O)CSC#N)cc1 [Compound 7] | >75% | > 75% |  | 
32 | < 1000 nM | active |  | N#CSCC(=O)c1cccc(Br)c1 [Compound 8] | >75% |  |  | 
33 | < 1000 nM | active |  | COc1cccc(C(=O)CSC#N)c1 [Compound 9] | >75% |  |  | 
34 | < 1000 nM |  | > 10000 nM | O=C1CSC(SCC(=O)c2ccccc2)=N1 [Compound 32] | >75% | > 50% |  | 
35 | < 1000 nM |  | > 10000 nM | O=C1CSC(SCC(=O)c2ccc(Br)cc2)=N1 [Compound 33] | >75% | > 75% |  | 
36 | < 1000 nM |  | 1000 to 10000 nM | O=C1CSC(SCC(=O)c2ccc3c(c2)OCCO3)=N1 [Compound 34, 2-[2-(2,3-Dihydro-benzo[1,4]dioxin-6-yl)-2-oxo-ethylsulfanyl]-thiazol-4-one] | >75% | > 75% |  | 
37 | < 1000 nM | active |  | O=C(CS)c1ccc(Br)cc1 [Compound 41, 1-(4-Bromo-phenyl)-2-mercapto-ethanone] | >75% | > 75% |  | 
38 | < 1000 nM |  | < 1000 nM | O=C(CSSCC(=O)c1ccc(NS(=O)(=O)c2ccc(OC(F)(F)F)cc2)cc1)c1ccc(NS(=O)(=O)c2ccc(OC(F)(F)F)cc2)cc1 [Compound 47, Thioacetic acid S-{2-oxo-2-[4-(4-trifluoromethoxy-benzenesulfonylamino)-phenyl]-ethyl}disulfide] | >75% | > 75% |  | 
39 | < 1000 nM |  | < 1000 nM | CC(=O)SCC(=O)c1ccc(NS(=O)(=O)c2ccc(OC(F)(F)F)cc2)cc1 [Compound 48, Thioacetic acid S-{2-oxo-2-[4-(4-trifluoromethoxy-benzenesulfonylamino)-phenyl]-ethyl}ester] | >75% | > 75% |  | 
40 | < 1000 nM |  | < 1000 nM | CC(/C=C/C(=O)NO)=C\[C@@H](C)C(=O)c1ccc(N(C)C)cc1 [TSA, reference compound] | 100% |  | 100% | 3 to 6 nM
